Values joined by “and” are separate entries in the source; they are usually repeats but may differ in a detail not shown here. Equal values may be shown once.
Legend:
U937/PR9 cells = assay type: cell-based, human
[1] = SGLU1 multiple dose toxicology in vivo; set-up: species or system mice; key to Death: “—” indicates no compound-related finding
Experimental: Further studies were performed to determine the dose-limiting toxicity associated with the administration of repeated doses in groups of mice. Tables 11–16 below describe the results of the multiple-dose toxicology studies for MER-1 and Tables 17–21 describe results of the multiple-dose toxicology of SGLU-1.
The results of the SGLU-1 Multiple Dose I.V. are summarized as follows: Five mice/sex were administered 5 daily intravenous injections of SGLU via the tail vein at doses of 50, 100, 150, 200, 250, 300, and 350 mg/kg/day. All surviving mice were held for 28 days, sacrificed, and designated tissues collected, formalin fixed, and examined.

[2] = 5 daily IV injections, 50–350 mg/kg/day

C[As](C)SC[C@H](NC(=O)CC[C@H](N)C(=O)O)C(=O)NCC(=O)O [SGLU1, S-(dimethylarsino) glutathione]
influence of functional PML/RARalpha gene on sensitivity (U937/PR9 cells): no influence on the sensitivity of the cells | Clinical Signs ([1]; 50 mg/kg/day IV daily x5): None. | Death ([1]; 50 mg/kg/day IV daily x5): — | Kidney: Murine progressive glomerulonephropathy, incidence ([1]; 50 mg/kg/day, F): 1/5 | Liver: Pyogranuloma, focal, incidence ([1]; 50 mg/kg/day, F): 1/5 | Lung: Hemorrhage, focal, incidence ([1]; 50 mg/kg/day, F): 1/5 | Number of animals/dose that tolerated 5 doses ([1]; 50 mg/kg/day, F): 5/5 | Body Weights Avg. ([1]; 50 mg/kg/day, Female): 25 grams | Liver: Pyogranuloma, focal, incidence ([1]; 50 mg/kg/day, M): 1/5 | Lung: Atelectasis, incidence ([1]; 50 mg/kg/day, M): 1/5 | Lung: Pleural adhesion, focal, incidence ([1]; 50 mg/kg/day, M): 1/5 | Number of animals/dose that tolerated 5 doses ([1]; 50 mg/kg/day, M): 5/5 | Body Weights Avg. ([1]; 50 mg/kg/day, Male): 25 grams | Clinical Signs ([1]; 100 mg/kg/day IV daily x5): None. | Death ([1]; 100 mg/kg/day IV daily x5): — | Kidney: Inflammation, focal, incidence ([1]; 100 mg/kg/day, F): 2/5 | Liver: Pyogranuloma, focal, incidence ([1]; 100 mg/kg/day, F): 5/5 | Number of animals/dose that tolerated 5 doses ([1]; 100 mg/kg/day, F): 5/5 | Body Weights Avg. ([1]; 100 mg/kg/day, Female): 24 grams | Liver: Pyogranuloma, focal, incidence ([1]; 100 mg/kg/day, M): 1/5 | Number of animals/dose that tolerated 5 doses ([1]; 100 mg/kg/day, M): 5/5 | Body Weights Avg. ([1]; 100 mg/kg/day, Male): 23 grams | Clinical Signs ([1]; 150 mg/kg/day IV daily x5): None. | Death ([1]; 150 mg/kg/day IV daily x5): — | Liver: Inflammation, portal, incidence ([1]; 150 mg/kg/day, F): 2/5 | Liver: Pyogranuloma, focal, incidence ([1]; 150 mg/kg/day, F): 3/5 | Number of animals/dose that tolerated 5 doses ([1]; 150 mg/kg/day, F): 5/5 | Body Weights Avg. ([1]; 150 mg/kg/day, Female): 25 grams | Kidney: Inflammation, focal, incidence ([1]; 150 mg/kg/day, M): 1/5 | Liver: Pyogranuloma, focal, incidence ([1]; 150 mg/kg/day, M): 1/5 | Lung: Inflammation, focal, incidence ([1]; 150 mg/kg/day, M): 1/5 | Number of animals/dose that tolerated 5 doses ([1]; 150 mg/kg/day, M): 5/5 | Tail: Acute necrosis with vasculitis, thrombosis, and hemorrhage, incidence ([1]; 150 mg/kg/day, M): 1/5 | Tail: Ulcerative dermatitis, incidence ([1]; 150 mg/kg/day, M): 1/5 | Testes: Seminiferous tubular degeneration, incidence ([1]; 150 mg/kg/day, M): 1/5 | Body Weights Avg. ([1]; 150 mg/kg/day, Male): 23 grams | Clinical Signs ([1]; 200 mg/kg/day IV daily x5): 2 F tail necrosis: amputate | Death ([1]; 200 mg/kg/day IV daily x5): — | Kidney: Inflammation, focal, incidence ([1]; 200 mg/kg/day, F): 2/5 | Liver: Hepatocyte hypertrophy: Centrilobular (compatible with SER), incidence ([1]; 200 mg/kg/day, F): 1/5 | Liver: Increased mitoses, incidence ([1]; 200 mg/kg/day, F): 1/5 | Liver: Inflammation, portal, incidence ([1]; 200 mg/kg/day, F): 3/5 | Liver: Pyogranuloma, focal, incidence ([1]; 200 mg/kg/day, F): 3/5 | Number of animals/dose that tolerated 5 doses ([1]; 200 mg/kg/day, F): 5/5 | Tail: Acute necrosis with vasculitis, thrombosis, and hemorrhage, incidence ([1]; 200 mg/kg/day, F): 4/5 | Tail: Ulcerative dermatitis, incidence ([1]; 200 mg/kg/day, F): 2/5 | Body Weights Avg. ([1]; 200 mg/kg/day, Female): 24 grams | Epididymus: Oligospermia, incidence ([1]; 200 mg/kg/day, M): 1/5 | Heart: Interstitial fat, increased, incidence ([1]; 200 mg/kg/day, M): 1/5 | Liver: Ito cell hypertrophy, incidence ([1]; 200 mg/kg/day, M): 1/5 | Liver: Pyogranuloma, focal, incidence ([1]; 200 mg/kg/day, M): 2/5 | Number of animals/dose that tolerated 5 doses ([1]; 200 mg/kg/day, M): 5/5 | Testes: Seminiferous tubular degeneration, incidence ([1]; 200 mg/kg/day, M): 1/5 | Body Weights Avg. ([1]; 200 mg/kg/day, Male): 24 grams | Clinical Signs ([1]; 250 mg/kg/day IV daily x5): 2 M tail necr.: amputate | Liver: Focus of Alteration, eosinophilic, incidence ([1]; 250 mg/kg/day, F): 1/5 | Liver: Hepatocyte hypertrophy: Centrilobular (compatible with SER), incidence ([1]; 250 mg/kg/day, F): 1/5 | Liver: Inflammation, portal, incidence ([1]; 250 mg/kg/day, F): 2/5 | Liver: Pyogranuloma, focal, incidence ([1]; 250 mg/kg/day, F): 1/5 | Lung: Inflammation, focal, incidence ([1]; 250 mg/kg/day, F): 1/5 | Number of animals/dose that tolerated 4 doses ([1]; 250 mg/kg/day, F): 1/5 | Number of animals/dose that tolerated 5 doses ([1]; 250 mg/kg/day, F): 4/5 | Body Weights Avg. ([1]; 250 mg/kg/day, Female): 24 grams | Epididymus: Oligospermia, incidence ([1]; 250 mg/kg/day, M): 1/5 | Liver: Hepatocyte hypertrophy: Centrilobular (compatible with SER), incidence ([1]; 250 mg/kg/day, M): 5/5 | Liver: Pyogranuloma, focal, incidence ([1]; 250 mg/kg/day, M): 3/5 | Number of animals/dose that tolerated 5 doses ([1]; 250 mg/kg/day, M): 5/5 | Tail: Acute necrosis with vasculitis, thrombosis, and hemorrhage, incidence ([1]; 250 mg/kg/day, M): 2/5 | Tail: Ulcerative dermatitis, incidence ([1]; 250 mg/kg/day, M): 1/5 | Testes: Seminiferous tubular degeneration, incidence ([1]; 250 mg/kg/day, M): 2/5 | Body Weights Avg. ([1]; 250 mg/kg/day, Male): 24 grams | Clinical Signs ([1]; 300 mg/kg/day IV daily x5): Slight decr. activity and 1 F tail necr.: amputate | Kidney: Congestion, incidence ([1]; 300 mg/kg/day, F): 1/5 | Liver: Hepatocyte hypertrophy: Centrilobular (compatible with SER), incidence ([1]; 300 mg/kg/day, F): 2/5 | Liver: Hepatocyte hypertrophy: Panlobular w/eosinophilia, incidence ([1]; 300 mg/kg/day, F): 1/5 | Liver: Pyogranuloma, focal, incidence ([1]; 300 mg/kg/day, F): 1/5 | Lung: Atelectasis, incidence ([1]; 300 mg/kg/day, F): 1/5 | Lung: Congestion, incidence ([1]; 300 mg/kg/day, F): 3/5 | Lung: Vasculitis, incidence ([1]; 300 mg/kg/day, F): 1/5 | Number of animals/dose that tolerated 1 dose ([1]; 300 mg/kg/day, F): 1/5 | Number of animals/dose that tolerated 2 doses ([1]; 300 mg/kg/day, F): 2/5 | Number of animals/dose that tolerated 5 doses ([1]; 300 mg/kg/day, F): 2/5 | Tail: Acute necrosis with vasculitis, thrombosis, and hemorrhage, incidence ([1]; 300 mg/kg/day, F): 1/5 | Body Weights Avg. ([1]; 300 mg/kg/day, Female): 24 grams | Epididymus: Oligospermia, incidence ([1]; 300 mg/kg/day, M): 2/5 | Heart: Medial hyprtrophy, coronary artery, incidence ([1]; 300 mg/kg/day, M): 1/5 | Liver: Hepatocyte hypertrophy: Centrilobular (compatible with SER), incidence ([1]; 300 mg/kg/day, M): 4/5 | Liver: Pyogranuloma, focal, incidence ([1]; 300 mg/kg/day, M): 2/5 | Lung: Congestion, incidence ([1]; 300 mg/kg/day, M): 1/5 | Number of animals/dose that tolerated 1 dose ([1]; 300 mg/kg/day, M): 3/5 | Number of animals/dose that tolerated 5 doses ([1]; 300 mg/kg/day, M): 2/5 | Tail: Acute necrosis with vasculitis, thrombosis, and hemorrhage, incidence ([1]; 300 mg/kg/day, M): 1/5 | Tail: Ulcerative dermatitis, incidence ([1]; 300 mg/kg/day, M): 1/5 | Testes: Seminiferous tubular degeneration, incidence ([1]; 300 mg/kg/day, M): 2/5 | Body Weights Avg. ([1]; 300 mg/kg/day, Male): 23 grams | Clinical Signs ([1]; 350 mg/kg/day IV daily x5): Moderate decr. activity and 2 M tail necr.: amputate | Kidney: Murine progressive glomerulonephropathy, incidence ([1]; 350 mg/kg/day, F): 1/5 | Liver: Hepatocyte hypertrophy: Periportal w/vacuolation, incidence ([1]; 350 mg/kg/day, F): 2/5 | Liver: Inflammation, portal, incidence ([1]; 350 mg/kg/day, F): 1/5 | Lung: Congestion, incidence ([1]; 350 mg/kg/day, F): 2/5 | Lung: Fibrin Thrombi, incidence ([1]; 350 mg/kg/day, F): 1/5 | Lung: Vasculitis, incidence ([1]; 350 mg/kg/day, F): 1/5 | Mandibular L. N.: Apoptosis, lymphocyte, incidence ([1]; 350 mg/kg/day, F): 1/5 | Number of animals/dose that tolerated 1 dose ([1]; 350 mg/kg/day, F): 4/5 | Number of animals/dose that tolerated 2 doses ([1]; 350 mg/kg/day, F): 1/5 | Spleen: Congestion, incidence ([1]; 350 mg/kg/day, F): 5/5 | Thymus: Apoptosis, increased, incidence ([1]; 350 mg/kg/day, F): 5/5 | Body Weights Avg. ([1]; 350 mg/kg/day, Female): 24 grams | Bone Marrow: Myeloid hyperplasia, incidence ([1]; 350 mg/kg/day, M): 1/5 | Epididymus: Oligospermia, incidence ([1]; 350 mg/kg/day, M): 5/5 | Kidney: Congestion, incidence ([1]; 350 mg/kg/day, M): 1/5 | Kidney: Inflammation, focal, incidence ([1]; 350 mg/kg/day, M): 1/5 | Liver: Hepatocyte hypertrophy: Centrilobular (compatible with SER), incidence ([1]; 350 mg/kg/day, M): 1/5 | Liver: Increased mitoses, incidence ([1]; 350 mg/kg/day, M): 1/5 | Liver: Pyogranuloma, focal, incidence ([1]; 350 mg/kg/day, M): 2/5 | Lung: Fibrin Thrombi, incidence ([1]; 350 mg/kg/day, M): 1/5 | Lung: Hemorrhage, focal, incidence ([1]; 350 mg/kg/day, M): 2/5 | Number of animals/dose that tolerated 1 dose ([1]; 350 mg/kg/day, M): 3/5 | Number of animals/dose that tolerated 5 doses ([1]; 350 mg/kg/day, M): 2/5 | Spleen: Congestion, incidence ([1]; 350 mg/kg/day, M): 2/5 | Spleen: Extramedullary hematopoiesis, increased, incidence ([1]; 350 mg/kg/day, M): 1/5 | Tail: Acute necrosis with vasculitis, thrombosis, and hemorrhage, incidence ([1]; 350 mg/kg/day, M): 1/5 | Testes: Seminiferous tubular degeneration, incidence ([1]; 350 mg/kg/day, M): 5/5 | Thymus: Apoptosis, increased, incidence ([1]; 350 mg/kg/day, M): 2/5 | Body Weights Avg. ([1]; 350 mg/kg/day, Male): 20 grams | deaths (summary) [1, 2]: Deaths occurred at 250, 300, and 350 mg/kg/day with female mice being more susceptible than males | microscopic observations (summary) [1, 2]: compound-related lesions in lung, liver, thymus, and testes | Deaths, number of animals/dose ([1]; 5 daily IV injections, F, 50 mg/kg/day): 0/5 | Deaths, number of animals/dose ([1]; 5 daily IV injections, F, 150 mg/kg/day): 0/5 | Deaths, number of animals/dose ([1]; 5 daily IV injections, F, 200 mg/kg/day): 0/5 | Deaths, number of animals/dose ([1]; 5 daily IV injections, F, 250 mg/kg/day): 1/5 | Deaths, number of animals/dose ([1]; 5 daily IV injections, F, 300 mg/kg/day): 3/5 | Deaths, number of animals/dose ([1]; 5 daily IV injections, F, 350 mg/kg/day): 5/5 | Deaths, number of animals/dose ([1]; 5 daily IV injections, M, 50 mg/kg/day): 0/5 | Deaths, number of animals/dose ([1]; 5 daily IV injections, M, 100 mg/kg/day): 0/5 | Deaths, number of animals/dose ([1]; 5 daily IV injections, M, 150 mg/kg/day): 0/5 | Deaths, number of animals/dose ([1]; 5 daily IV injections, M, 200 mg/kg/day): 0/5 | Deaths, number of animals/dose ([1]; 5 daily IV injections, M, 250 mg/kg/day): 0/5 | Deaths, number of animals/dose ([1]; 5 daily IV injections, M, 300 mg/kg/day): 1/5 | Deaths, number of animals/dose ([1]; 5 daily IV injections, M, 350 mg/kg/day): 3/5 | no-observable-effect level ([1]; 5 daily IV injections, female mice): 150 mg/kg | centrilobular hypertrophy of hepatocytes, incidence ([1]; 5 daily IV injections, female mice, 200 mg/kg/day): 1/5 | no-observable-effect level (NOEL) ([1]; 5 daily IV injections, male mice): 100 mg/kg/day | testicular seminiferous tubular degeneration, incidence ([1]; 5 daily IV injections, males, 150 mg/kg/day): 1/5
